Test results published in US20200024278A1, “COMPOSITION COMPRISING ANTIBIOTIC COMPOUND AND AN HETEROCYCLIC COMPOUND AND THEIR USE IN PREVENTING OR TREATING BACTERIAL INFECTIONS” (MUTABILIS, priority 2016, published 2020).
Where two headings read alike, the source gives them in different places.

Assays:
Assay in all cases: MIC, broth microdilution (CLSI), substance alone or ATB combined with compound at 4 or 8 μg/mL
ECL P99 = type: cell-based, E. cloacae; conditions: ECL P99; for MIC: Enterobacter cloacae
Summary of the method: (§1)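 Antibiotic MICs were determined in presence of fixed compound at 4 or 8 μg/mL, and compound MICs alone, by visual growth inhibition. Inoculum 5·10^5 CFU/mL in ca-MHB, incubated 35 °C for 16-20 h per CLSI-M7-A7. Glucose-6-phosphate (25 μg/ml) added when fosfomycin was tested.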

PAE 105250 = type: cell-based, P. aeruginosa; conditions: PAE 105250
Summary of the method: as §1

PAE UFR48 = type: cell-based, P. aeruginosa; conditions: PAE UFR48
Summary of the method: as §1

PAE UFR90 = type: cell-based, P. aeruginosa; conditions: PAE UFR90
Summary of the method: as §1

SAU 29213 = type: cell-based, S. aureus; conditions: SAU 29213
Summary of the method: as §1

SPN 49619 = type: cell-based, S. pneumoniae; conditions: SPN 49619
Summary of the method: as §1

[1] = Pseudomonas aeruginosa, antibiotic alone, read-out: MIC ATB alone

## CO/N=C(\C(=O)N[C@@H]1C(=O)N2C(C(=O)O)=C(COC(N)=O)CS[C@H]12)c1ccco1 [FUR, Cefuroxime, reference compound]
ECL P99; with Example 9 at 4 μg/ml
  MIC ATB combined with Example 9 @4 μg/ml: <0.031 µg/mL
ECL P99; with Example 11 at 8 μg/ml
  MIC ATB combined with Example 11 @8 μg/ml: <0.031 µg/mL
ECL P99; with Example 12 at 8 μg/ml
  MIC ATB combined with Example 12 @8 μg/ml: <0.031 µg/mL
ECL P99; with Example 13 at 8 μg/ml
  MIC ATB combined with Example 13 @8 μg/ml: 16 µg/mL
ECL P99; with Example 14 at 8 μg/ml
  MIC ATB combined with Example 14 @8 μg/ml: <0.031 µg/mL
ECL P99; with Example 15 at 4 μg/ml
  MIC ATB combined with Example 15 @4 μgml: <0.031 µg/mL
ECL P99; with Example 16 at 4 μg/ml
  MIC ATB combined with Example 16 @4 μg/ml: <0.031 µg/mL
ECL P99; antibiotic alone, read-out: MIC ATB alone
  MIC: > 512 µg/mL
ECL P99; substance alone, read-out: MIC
  MIC: > 512 µg/mL
PAE 105250; with Example 1 @8 μg/ml
  MIC ATB combined with Example 1 @8 μg/ml: <0.031 µg/mL
PAE 105250; with Example 1 at 8 μg/ml
  MIC ATB combined with Example 1 @8 μg/ml: <0.031 µg/mL
PAE 105250; with Example 7 at 8 μg/ml
  MIC ATB combined with Example 7 @8 μgml: >32 µg/mL
PAE 105250; with Example 9 @4 μg/ml
  MIC ATB combined with Example 9 @4 μg/ml: >32 µg/mL
PAE 105250; with Example 9 at 4 μg/ml
  MIC ATB combined with Example 9 @4 μg/ml: >32 µg/mL
PAE 105250; with Example 11 at 8 μg/ml
  MIC ATB combined with Example 11 @8 μg/ml: >32 µg/mL
PAE 105250; with Example 12 at 8 μg/ml
  MIC ATB combined with Example 12 @8 μg/ml: >32 µg/mL
PAE 105250; with Example 13 at 8 μg/ml
  MIC ATB combined with Example 13 @8 μg/ml: >32 µg/mL
PAE 105250; with Example 14 at 8 μg/ml
  MIC ATB combined with Example 14 @8 μg/ml: >32 µg/mL
PAE 105250; with Example 15 at 4 μg/ml
  MIC ATB combined with Example 15 @4 μgml: >32 µg/mL
PAE 105250; with Example 16 at 4 μg/ml
  MIC ATB combined with Example 16 @4 μg/ml: >32 µg/mL
PAE 105250; [1]
  MIC: > 512 µg/mL
PAE UFR48; with Example 1 @8 μg/ml
  MIC ATB combined with Example 1 @8 μg/ml: <0.031 µg/mL
PAE UFR48; with Example 1 at 8 μg/ml
  MIC ATB combined with Example 1 @8 μg/ml: <0.031 µg/mL
PAE UFR48; with Example 7 at 8 μg/ml
  MIC ATB combined with Example 7 @8 μgml: >32 µg/mL
PAE UFR48; with Example 9 @4 μg/ml
  MIC ATB combined with Example 9 @4 μg/ml: >32 µg/mL
PAE UFR48; with Example 9 at 4 μg/ml
  MIC ATB combined with Example 9 @4 μg/ml: >32 µg/mL
PAE UFR48; with Example 11 at 8 μg/ml
  MIC ATB combined with Example 11 @8 μg/ml: >32 µg/mL
PAE UFR48; with Example 12 at 8 μg/ml
  MIC ATB combined with Example 12 @8 μg/ml: >32 µg/mL
PAE UFR48; with Example 13 at 8 μg/ml
  MIC ATB combined with Example 13 @8 μg/ml: >32 µg/mL
PAE UFR48; with Example 14 at 8 μg/ml
  MIC ATB combined with Example 14 @8 μg/ml: >32 µg/mL
PAE UFR48; with Example 15 at 4 μg/ml
  MIC ATB combined with Example 15 @4 μgml: >32 µg/mL
PAE UFR48; with Example 16 at 4 μg/ml
  MIC ATB combined with Example 16 @4 μg/ml: >32 µg/mL
PAE UFR48; [1]
  MIC: > 32 µg/mL
PAE UFR90; with Example 1 @8 μg/ml
  MIC ATB combined with Example 1 @8 μg/ml: <0.031 µg/mL
PAE UFR90; with Example 1 at 8 μg/ml
  MIC ATB combined with Example 1 @8 μg/ml: <0.031 µg/mL
PAE UFR90; with Example 7 at 8 μg/ml
  MIC ATB combined with Example 7 @8 μgml: >32 µg/mL
PAE UFR90; with Example 9 @4 μg/ml
  MIC ATB combined with Example 9 @4 μg/ml: >32 µg/mL
PAE UFR90; with Example 9 at 4 μg/ml
  MIC ATB combined with Example 9 @4 μg/ml: >32 µg/mL
PAE UFR90; with Example 11 at 8 μg/ml
  MIC ATB combined with Example 11 @8 μg/ml: >32 µg/mL
PAE UFR90; with Example 12 at 8 μg/ml
  MIC ATB combined with Example 12 @8 μg/ml: >32 µg/mL
PAE UFR90; with Example 13 at 8 μg/ml
  MIC ATB combined with Example 13 @8 μg/ml: >32 µg/mL
PAE UFR90; with Example 14 at 8 μg/ml
  MIC ATB combined with Example 14 @8 μg/ml: >32 µg/mL
PAE UFR90; with Example 15 at 4 μg/ml
  MIC ATB combined with Example 15 @4 μgml: >32 µg/mL
PAE UFR90; with Example 16 at 4 μg/ml
  MIC ATB combined with Example 16 @4 μg/ml: >32 µg/mL
PAE UFR90; [1]
  MIC: > 32 µg/mL
SAU 29213; with Example 1 @8 μg/ml
  MIC ATB combined with Example 1 @8 μg/ml: 1 µg/mL
SAU 29213; with Example 1 at 8 μg/ml
  MIC ATB combined with Example 1 @8 μg/ml: 1 µg/mL
SAU 29213; with Example 7 at 8 μg/ml
  MIC ATB combined with Example 7 @8 μgml: 1 µg/mL
SAU 29213; with Example 9 @4 μg/ml
  MIC ATB combined with Example 9 @4 μg/ml: <0.031 µg/mL
SAU 29213; with Example 9 at 4 μg/ml
  MIC ATB combined with Example 9 @4 μg/ml: <0.031 µg/mL
SAU 29213; with Example 11 at 8 μg/ml
  MIC ATB combined with Example 11 @8 μg/ml: <0.031 µg/mL
SAU 29213; with Example 12 at 8 μg/ml
  MIC ATB combined with Example 12 @8 μg/ml: <0.031 µg/mL
SAU 29213; with Example 13 at 8 μg/ml
  MIC ATB combined with Example 13 @8 μg/ml: 1 µg/mL
SAU 29213; with Example 14 at 8 μg/ml
  MIC ATB combined with Example 14 @8 μg/ml: <0.031 µg/mL
SAU 29213; with Example 15 at 4 μg/ml
  MIC ATB combined with Example 15 @4 μgml: <0.031 µg/mL
SAU 29213; with Example 16 at 4 μg/ml
  MIC ATB combined with Example 16 @4 μg/ml: <0.031 µg/mL
SAU 29213; Staphylococcus aureus, antibiotic alone, read-out: MIC ATB alone
  MIC: 2 µg/mL
SPN 49619; with Example 1 @8 μg/ml
  MIC ATB combined with Example 1 @8 μg/ml: 0.25 µg/mL
SPN 49619; with Example 1 at 8 μg/ml
  MIC ATB combined with Example 1 @8 μg/ml: 0.25 µg/mL
SPN 49619; with Example 7 at 8 μg/ml
  MIC ATB combined with Example 7 @8 μgml: 0.25 µg/mL
SPN 49619; with Example 9 @4 μg/ml
  MIC ATB combined with Example 9 @4 μg/ml: <=0.031 μg/mL
SPN 49619; with Example 9 at 4 μg/ml
  MIC ATB combined with Example 9 @4 μg/ml: <=0.031 μg/mL
SPN 49619; with Example 11 at 8 μg/ml
  MIC ATB combined with Example 11 @8 μg/ml: 0.063 µg/mL
SPN 49619; with Example 12 at 8 μg/ml
  MIC ATB combined with Example 12 @8 μg/ml: <0.031 µg/mL
SPN 49619; with Example 13 at 8 μg/ml
  MIC ATB combined with Example 13 @8 μg/ml: 0.25 µg/mL
SPN 49619; with Example 14 at 8 μg/ml
  MIC ATB combined with Example 14 @8 μg/ml: <0.031 µg/mL
SPN 49619; with Example 15 at 4 μg/ml
  MIC ATB combined with Example 15 @4 μgml: <0.031 µg/mL
SPN 49619; with Example 16 at 4 μg/ml
  MIC ATB combined with Example 16 @4 μg/ml: <0.031 µg/mL
SPN 49619; Streptococcus pneumoniae, antibiotic alone, read-out: MIC ATB alone
  MIC: 0.25 µg/mL
